We go through six molecules from ChEMBL document CHEMBL1145605, “Novel 2-imidazoles as potent and selective alpha1A adrenoceptor partial agonists” (Bioorg Med Chem Lett, 2008).

One data set addresses CYP2D6 (Homo sapiens, UniProt P10635). Kind of data set: Inhibition of CYP2D6 at 10 uM. It is filed as ADME.
Data set [1] deals with Voltage-gated inwardly rectifying potassium channel KCNH2 (Homo sapiens, UniProt Q12809). The data set can be described thus: Activity at human ERG at 10 uM.
The nature of data set [2]: Intrinsic clearance per 10^6 cells in human hepatocytes. It is filed as ADME, cell-based, Liver, Hepatocyte.
Another data set concerns the target CYP2C19 (Homo sapiens, UniProt P33261). Kind of data set: Inhibition of CYP2C19 at 10 uM. It is filed as ADME.
The target in data set [3] is T1, Alpha-1A adrenergic receptor (Homo sapiens) (UniProt P35348).
T1 sequence (whole entry): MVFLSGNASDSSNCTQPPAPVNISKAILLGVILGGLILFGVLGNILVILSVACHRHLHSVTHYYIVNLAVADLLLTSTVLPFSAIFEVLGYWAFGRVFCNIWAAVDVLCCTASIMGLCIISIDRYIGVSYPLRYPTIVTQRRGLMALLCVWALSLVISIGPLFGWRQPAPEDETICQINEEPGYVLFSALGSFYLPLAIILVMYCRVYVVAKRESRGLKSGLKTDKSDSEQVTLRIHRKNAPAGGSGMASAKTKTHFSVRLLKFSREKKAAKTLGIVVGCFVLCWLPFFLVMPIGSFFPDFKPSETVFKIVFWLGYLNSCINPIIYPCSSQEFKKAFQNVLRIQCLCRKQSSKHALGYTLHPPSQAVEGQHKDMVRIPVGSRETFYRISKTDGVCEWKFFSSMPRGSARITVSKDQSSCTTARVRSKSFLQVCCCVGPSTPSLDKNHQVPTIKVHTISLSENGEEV
The data set can be described thus: Agonist activity at human cloned adrenergic alpha-1A receptor expressed in CHO cells assessed as calcium mobilization by FLIPR relative to phenylephrine. In kind it is functional, cell-based. (Calcium flux is commonly read through the fluorescence of an indicator in the cells.)

The nature of data set [4]: Partition coefficient, log D at pH 7.4. It is filed as physicochemical. The note with it: octanol/water.
The target of another data set is CYP2C9 (Homo sapiens, UniProt P11712). Kind of data set: Inhibition of CYP2C9 at 10 uM. In kind it is ADME.
Data set [5] is described as follows: Intrinsic clearance in human liver microsomes. It is filed as ADME, Microsome. For orientation: Microsomes from liver hold many membrane-bound enzymes, among them those of drug oxidation.
Data set [6] concerns the target T2, Alpha-2A adrenergic receptor (Homo sapiens, UniProt P08913).
T2 sequence (P08913 whole entry): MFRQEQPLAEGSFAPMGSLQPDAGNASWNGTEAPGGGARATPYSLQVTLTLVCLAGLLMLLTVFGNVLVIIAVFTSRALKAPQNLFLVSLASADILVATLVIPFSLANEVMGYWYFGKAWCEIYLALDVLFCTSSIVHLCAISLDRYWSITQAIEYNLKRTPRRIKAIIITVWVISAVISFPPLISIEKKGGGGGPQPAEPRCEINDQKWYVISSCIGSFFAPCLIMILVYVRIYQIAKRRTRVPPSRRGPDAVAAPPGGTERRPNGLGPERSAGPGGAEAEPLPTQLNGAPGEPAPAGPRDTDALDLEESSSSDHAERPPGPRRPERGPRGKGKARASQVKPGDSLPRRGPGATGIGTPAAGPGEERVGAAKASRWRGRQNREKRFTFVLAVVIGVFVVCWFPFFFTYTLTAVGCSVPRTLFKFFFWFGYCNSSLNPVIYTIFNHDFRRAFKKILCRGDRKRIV
Kind of data set: Agonist activity at human cloned adrenergic alpha-2A receptor expressed in CHOK1 cells by beta-lactamase reporter gene assay. In kind it is functional, cell-based, CHO-K1. (In general: Reporter assays use an easily measured gene product as a stand-in for the process of interest.)

The target of data set [7] is T3, Alpha-1B adrenergic receptor (Homo sapiens, UniProt P35368).
T3 sequence (P35368 whole entry): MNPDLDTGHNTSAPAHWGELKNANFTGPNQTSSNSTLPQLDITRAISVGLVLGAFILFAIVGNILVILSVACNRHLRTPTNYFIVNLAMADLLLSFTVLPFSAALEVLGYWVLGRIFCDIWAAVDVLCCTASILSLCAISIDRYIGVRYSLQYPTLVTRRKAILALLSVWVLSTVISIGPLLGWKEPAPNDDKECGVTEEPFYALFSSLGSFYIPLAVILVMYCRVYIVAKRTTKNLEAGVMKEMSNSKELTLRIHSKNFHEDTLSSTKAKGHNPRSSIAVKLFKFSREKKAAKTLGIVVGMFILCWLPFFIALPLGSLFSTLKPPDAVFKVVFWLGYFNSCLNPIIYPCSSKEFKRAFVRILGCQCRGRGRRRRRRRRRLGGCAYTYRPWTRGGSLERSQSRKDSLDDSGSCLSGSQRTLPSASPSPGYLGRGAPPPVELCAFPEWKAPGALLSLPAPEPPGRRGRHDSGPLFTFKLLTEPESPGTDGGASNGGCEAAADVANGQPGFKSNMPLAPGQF
The data set can be described thus: Agonist activity at human cloned adrenergic alpha-1B receptor expressed in CHO cells assessed as calcium mobilization by FLIPR. In kind it is functional, cell-based.

Another data set concerns the target CYP3A4 (Homo sapiens, UniProt P08684). Kind of data set: Inhibition of CYP3A4 at 10 uM. It is filed as ADME.
Data set [8] has as its target T4, Alpha-1A adrenergic receptor (Homo sapiens, UniProt P35348).
T4 sequence (P35348 whole entry): T1 sequence (whole entry)
The data set can be described thus: Agonist activity at human cloned adrenergic alpha-1A receptor expressed in CHO cells assessed as calcium mobilization by FLIPR. It is filed as functional, cell-based.

Data set [9] has as its target T5, Alpha-1D adrenergic receptor (Homo sapiens, UniProt P25100).
T5 sequence (P25100 whole entry): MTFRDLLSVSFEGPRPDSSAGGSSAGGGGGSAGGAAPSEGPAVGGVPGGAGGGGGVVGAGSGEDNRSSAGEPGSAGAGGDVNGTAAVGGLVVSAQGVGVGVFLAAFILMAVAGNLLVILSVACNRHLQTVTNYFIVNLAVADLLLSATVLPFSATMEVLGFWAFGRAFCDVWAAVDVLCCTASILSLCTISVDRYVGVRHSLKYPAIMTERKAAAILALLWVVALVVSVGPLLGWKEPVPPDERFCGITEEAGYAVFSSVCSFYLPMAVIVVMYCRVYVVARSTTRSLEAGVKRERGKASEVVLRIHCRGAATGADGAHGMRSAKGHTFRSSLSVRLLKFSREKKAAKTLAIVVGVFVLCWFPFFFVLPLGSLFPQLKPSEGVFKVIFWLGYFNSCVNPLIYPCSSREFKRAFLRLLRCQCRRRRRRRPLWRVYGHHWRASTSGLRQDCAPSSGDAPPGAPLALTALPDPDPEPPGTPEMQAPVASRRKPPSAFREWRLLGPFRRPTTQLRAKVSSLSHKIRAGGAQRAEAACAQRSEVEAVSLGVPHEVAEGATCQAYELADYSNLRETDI
Kind of data set: Agonist activity at human cloned adrenergic Alpha-1D receptor expressed in CHO cells assessed as calcium mobilization by FLIPR. In kind it is functional, cell-based.

In data set [10] the target is T6, Alpha-1B adrenergic receptor (Homo sapiens) (UniProt P35368).
T6 sequence (whole entry): T3 sequence (P35368 whole entry)
Kind of data set: Agonist activity at human cloned adrenergic Alpha-1B receptor expressed in CHO cells assessed as calcium mobilization by FLIPR relative to phenylephrine. In kind it is functional, cell-based.

Data set [11] addresses T7, Alpha-1D adrenergic receptor (Homo sapiens) (UniProt P25100).
T7 sequence (whole entry): T5 sequence (P25100 whole entry)
Kind of data set: Agonist activity at human cloned adrenergic Alpha-1D receptor expressed in CHO cells assessed as calcium mobilization by FLIPR relative to phenylephrine. In kind it is functional, cell-based.

In data set [12] the target is T8, Alpha-2A adrenergic receptor (Homo sapiens) (UniProt P08913).
T8 sequence (whole entry): T2 sequence (P08913 whole entry)
The data set can be described thus: Agonist activity at human cloned adrenergic alpha-2A receptor expressed in CHOK1 cells by beta-lactamase reporter gene assay relative to dexmeditomidine. It is filed as functional, cell-based. The note with it: CHO-K1.

The structures appear in SMILES notation. pEC50: −log10 of the molar value.

Chain of CYP2C19 (P33261 whole entry): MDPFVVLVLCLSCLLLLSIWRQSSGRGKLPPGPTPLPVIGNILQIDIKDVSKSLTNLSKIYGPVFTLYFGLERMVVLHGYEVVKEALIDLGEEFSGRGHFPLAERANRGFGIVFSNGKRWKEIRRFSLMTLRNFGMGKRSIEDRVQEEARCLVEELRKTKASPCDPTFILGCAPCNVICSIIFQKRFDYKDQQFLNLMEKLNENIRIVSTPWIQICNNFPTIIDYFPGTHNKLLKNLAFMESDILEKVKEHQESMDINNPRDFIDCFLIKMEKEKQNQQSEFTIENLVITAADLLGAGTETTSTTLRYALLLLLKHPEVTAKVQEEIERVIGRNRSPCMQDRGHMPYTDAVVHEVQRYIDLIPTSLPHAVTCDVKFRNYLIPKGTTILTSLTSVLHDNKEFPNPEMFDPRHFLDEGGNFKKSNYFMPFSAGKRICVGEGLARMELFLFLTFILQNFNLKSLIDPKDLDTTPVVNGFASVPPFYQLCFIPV
Chain of CYP3A4 (P08684 whole entry): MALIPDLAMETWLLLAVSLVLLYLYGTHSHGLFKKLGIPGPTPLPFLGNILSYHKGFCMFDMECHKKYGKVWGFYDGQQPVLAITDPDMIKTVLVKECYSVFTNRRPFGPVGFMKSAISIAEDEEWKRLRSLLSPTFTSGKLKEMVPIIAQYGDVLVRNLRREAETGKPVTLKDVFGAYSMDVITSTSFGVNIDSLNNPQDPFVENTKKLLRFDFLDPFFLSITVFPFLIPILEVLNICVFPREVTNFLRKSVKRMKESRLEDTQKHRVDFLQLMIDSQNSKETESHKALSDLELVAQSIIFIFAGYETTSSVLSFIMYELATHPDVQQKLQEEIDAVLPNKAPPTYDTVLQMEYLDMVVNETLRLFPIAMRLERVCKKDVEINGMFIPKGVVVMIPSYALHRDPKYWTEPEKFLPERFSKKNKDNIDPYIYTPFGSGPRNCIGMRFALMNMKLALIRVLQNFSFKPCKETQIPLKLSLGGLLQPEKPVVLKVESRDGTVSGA
Chain of CYP2C9 (P11712 whole entry): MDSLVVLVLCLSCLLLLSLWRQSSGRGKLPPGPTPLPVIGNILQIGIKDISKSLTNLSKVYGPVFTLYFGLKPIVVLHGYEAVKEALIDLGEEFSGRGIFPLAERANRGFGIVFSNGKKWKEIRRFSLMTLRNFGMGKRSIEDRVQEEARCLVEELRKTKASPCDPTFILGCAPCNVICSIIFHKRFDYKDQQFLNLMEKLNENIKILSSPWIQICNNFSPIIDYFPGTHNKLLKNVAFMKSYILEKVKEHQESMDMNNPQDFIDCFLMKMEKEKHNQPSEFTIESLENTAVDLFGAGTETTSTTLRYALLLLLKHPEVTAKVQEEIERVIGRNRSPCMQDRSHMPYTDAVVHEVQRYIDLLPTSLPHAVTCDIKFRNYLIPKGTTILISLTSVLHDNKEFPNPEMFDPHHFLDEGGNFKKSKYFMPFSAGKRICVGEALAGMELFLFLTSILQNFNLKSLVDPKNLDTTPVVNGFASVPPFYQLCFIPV
Chain of CYP2D6 (P10635 whole entry): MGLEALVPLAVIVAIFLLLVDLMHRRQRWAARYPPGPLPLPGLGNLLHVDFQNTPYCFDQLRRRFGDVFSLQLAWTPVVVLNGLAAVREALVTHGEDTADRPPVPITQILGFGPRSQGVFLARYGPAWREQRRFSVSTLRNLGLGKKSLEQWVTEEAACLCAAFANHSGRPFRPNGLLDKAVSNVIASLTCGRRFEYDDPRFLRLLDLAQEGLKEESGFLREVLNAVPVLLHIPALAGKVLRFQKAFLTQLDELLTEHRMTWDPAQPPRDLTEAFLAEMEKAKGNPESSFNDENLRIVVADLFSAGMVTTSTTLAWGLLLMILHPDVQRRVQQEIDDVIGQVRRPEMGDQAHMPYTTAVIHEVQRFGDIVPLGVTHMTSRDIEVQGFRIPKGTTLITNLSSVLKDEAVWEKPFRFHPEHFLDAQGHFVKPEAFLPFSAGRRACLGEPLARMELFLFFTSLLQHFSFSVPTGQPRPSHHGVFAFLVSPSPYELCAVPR
Chain of Voltage-gated inwardly rectifying potassium channel KCNH2 (Q12809 whole entry): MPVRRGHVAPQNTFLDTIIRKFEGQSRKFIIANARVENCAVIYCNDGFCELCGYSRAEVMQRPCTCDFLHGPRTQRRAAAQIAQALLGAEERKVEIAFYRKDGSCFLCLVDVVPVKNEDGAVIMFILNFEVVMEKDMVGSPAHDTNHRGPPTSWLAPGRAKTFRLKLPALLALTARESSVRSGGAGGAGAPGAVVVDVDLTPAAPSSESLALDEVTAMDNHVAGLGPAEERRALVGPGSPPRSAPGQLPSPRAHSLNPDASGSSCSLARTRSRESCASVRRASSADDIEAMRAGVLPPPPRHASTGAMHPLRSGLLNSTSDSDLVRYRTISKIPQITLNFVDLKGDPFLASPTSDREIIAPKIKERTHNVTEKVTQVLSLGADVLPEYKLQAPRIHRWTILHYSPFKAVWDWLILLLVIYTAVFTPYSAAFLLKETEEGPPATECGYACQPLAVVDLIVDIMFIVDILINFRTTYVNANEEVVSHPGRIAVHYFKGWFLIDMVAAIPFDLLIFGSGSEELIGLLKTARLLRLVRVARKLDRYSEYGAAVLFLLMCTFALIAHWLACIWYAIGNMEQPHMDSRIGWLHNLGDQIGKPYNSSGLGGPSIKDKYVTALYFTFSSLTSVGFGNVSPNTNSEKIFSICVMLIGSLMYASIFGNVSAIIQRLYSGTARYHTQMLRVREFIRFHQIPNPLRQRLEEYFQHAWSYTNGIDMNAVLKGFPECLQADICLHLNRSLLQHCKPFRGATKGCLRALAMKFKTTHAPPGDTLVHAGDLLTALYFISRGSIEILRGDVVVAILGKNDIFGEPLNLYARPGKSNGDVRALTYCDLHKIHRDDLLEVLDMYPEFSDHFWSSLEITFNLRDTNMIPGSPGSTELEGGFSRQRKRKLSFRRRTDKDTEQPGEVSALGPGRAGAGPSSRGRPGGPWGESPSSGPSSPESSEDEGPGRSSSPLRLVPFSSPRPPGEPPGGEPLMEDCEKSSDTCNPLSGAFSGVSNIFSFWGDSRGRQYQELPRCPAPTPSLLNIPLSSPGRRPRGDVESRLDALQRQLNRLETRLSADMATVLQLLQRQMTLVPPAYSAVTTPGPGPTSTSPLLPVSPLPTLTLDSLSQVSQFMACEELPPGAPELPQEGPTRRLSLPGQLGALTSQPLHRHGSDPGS

The term inhibition denotes the percentage by which the read-out fell short of the control. A high value points to strong suppression. Broadly, the hepatocyte CLint is a measure of how fast metabolising enzymes remove a compound, apart from limits set by blood flow. In general, Emax refers to the greatest response seen or fitted, relative to the assay's reference. For orientation: logD means the decadic logarithm of the distribution of all forms, ionised or not, between an organic phase and buffer at a given pH. The low end stands for lower lipophilicity, the high end for higher lipophilicity. In general, microsomal CLint refers to a measure of how fast metabolising enzymes remove a compound, apart from limits set by blood flow. Low values mean slow turnover, high ones rapid turnover. The term pEC50 denotes the negative decadic logarithm of the EC50, by convention in mol/L. With `CS(=O)(=O)Nc1c(Cl)ccc2c1CCCC2c1ncc[nH]1` (centres undefined), the inhibition at 10 µM at CYP2D6, on CYP2C19, against CYP2C9 and against CYP3A4 was less than 25% in each case. Moreover, the Activity in data set [1] was found to be 0%. For the same molecule, in data set [2], the hepatocyte CLint was less than 5 µL/min/1e6 cells. Moreover, the Emax in [3] was 61%. In [4], this molecule registered a logD of 1.5. This molecule also gave a microsomal CLint in data set [5] of less than 7 µL/min/mg. Besides, the pEC50 in data set [6] is less than 5.00; in [7] it was less than 5.00; in data set [8], 7.37; in data set [9], less than 5.00.
For `c1cc(-c2ccn[nH]2)c2c(c1)C(c1ncc[nH]1)CC2` (centres undefined), the Emax is 83% in data set [3], 32% in data set [10] and 57% in data set [11].
Take `c1ccc2c(c1)CCCC2c1ncc[nH]1` (centres undefined): the Emax in data set [3] is 71%; in [10], 58%; in data set [11] it was 74%; in data set [12], 105%. For the same molecule, the pEC50 is 6.14 in [6], 6.10 in [7], 6.41 in [8] and 6.44 in data set [9].
Take `Cc1n[nH]cc1-c1cccc2c1CCC2c1ncc[nH]1` (centres undefined): the Emax came out at 91% in data set [3], 14% in [10] and 66% in data set [11].
On to `COc1cccc2c1CCC2c1ncc[nH]1` (centres undefined), for which the Emax in data set [3] was found to be 65%; in data set [12] it was 100%. In addition, the pEC50 was 7.57 in [6], less than 5.00 in data set [7], 7.49 in data set [8] and less than 5.00 in data set [9].
For `c1cncc(-c2cccc3c2CCC3c2ncc[nH]2)c1` (centres undefined), the Emax in [3] came to 36%; in data set [12], 25%. Moreover, the pEC50 in data set [6] is 5.34; in data set [7], less than 5.00; in data set [8], 5.69; in [9], less than 5.00.
